From PMC10142505, “Synthesis, Evaluation of Enzyme Inhibition and Redox Properties of Potential Dual COX-2 and 5-LOX Inhibitors” (Pharmaceuticals, 2023)

Columns and labels:
[1] = target: T1, COX-2 human recombinant enzyme (Homo sapiens, UniProt P35354); assay: Fluorometric COX-2 inhibitor screening kit; type: biochemical; conditions: IC50 ± standard error
T1 construct: purchased Abcam ab283401
T1 sequence (P35354 18-604): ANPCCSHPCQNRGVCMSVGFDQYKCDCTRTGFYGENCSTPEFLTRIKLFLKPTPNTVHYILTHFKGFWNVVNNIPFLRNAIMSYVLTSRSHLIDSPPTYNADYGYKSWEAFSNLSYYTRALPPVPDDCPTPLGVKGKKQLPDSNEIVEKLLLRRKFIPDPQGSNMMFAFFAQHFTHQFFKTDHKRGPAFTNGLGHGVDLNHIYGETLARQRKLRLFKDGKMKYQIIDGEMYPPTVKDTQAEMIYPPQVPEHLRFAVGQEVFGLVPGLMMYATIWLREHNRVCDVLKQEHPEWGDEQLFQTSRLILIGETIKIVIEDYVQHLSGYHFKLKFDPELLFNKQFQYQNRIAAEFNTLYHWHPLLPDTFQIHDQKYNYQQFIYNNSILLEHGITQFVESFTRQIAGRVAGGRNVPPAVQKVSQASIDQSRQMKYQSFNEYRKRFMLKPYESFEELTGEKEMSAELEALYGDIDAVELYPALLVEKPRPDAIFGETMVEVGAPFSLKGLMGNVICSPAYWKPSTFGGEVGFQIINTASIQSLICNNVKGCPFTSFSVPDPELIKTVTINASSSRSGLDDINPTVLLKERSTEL
Description: The COX-1 and COX-2 inhibitory activates of the synthesized compounds were tested using fluorometric COX-1 (Catalog Number: ab204698) and COX-2 (Catalog Number: ab283401) inhibitor screening kits (Abcam, United Kingdom). These assays are based on the fluorometric detection of Prostaglandin G2, generated by the COX enzyme. The experiment was conducted according to the manufacturer’s instructions. Each assay consists of a COX Assay Buffer, COX Probe (in DMSO), COX Cofactor (in DMSO), arachidonic acid and NaOH. The COX-1 inhibitor screening kit contains COX-1 ovine enzyme and COX-1 inhibitor SC560 (dissolved in DMSO), while the COX-2 inhibitor screening kit contains COX-2 human recombinant enzyme and COX-2 inhibitor Celecoxib (dissolved in DMSO). The tested compounds were dissolved in DMSO and further diluted five times with the COX Assay Buffer. The Inhibitor Control (IC) was prepared by adding 2 µL of COX-1/COX-2 inhibitor and 8 µL of COX Assay Buffer into assigned wells, while the Solvent Control (SC) was prepared by adding 2 µL of DMSO and 8 µL of COX Assay Buffer into assigned wells and the Sample (S) and Enzyme Control (EC) were prepared by adding 10 µL of diluted tested compounds or COX Assay Buffer into assigned wells. The Reaction Master Mix (COX Assay Buffer, COX Probe, Diluted COX Cofactor and COX-1/COX-2 Enzyme) was prepared according to instructions and 80 µL of the Reaction Master Mix was added into each well. Meanwhile, a diluted arachidonic acid/NaOH solution was prepared and 10 µL was added into each well using a multi-channel pipette to initiate all the reactions at the same time. […] The EC, SC, IC and tested compounds at all concentrations were analyzed in triplicates. Two points (T1 and T2) in the linear range of the plot were chosen and corresponding fluorescence values (RFU1 and RFU2) were obtained. The slope for all samples was calculated by dividing ΔRFU (RFU2-RFU1) by time Δt (T2−T1). The percentage of inhibition was calculated as follows: % Relative Inhibition=Slope of EC−Slope of S/Slope of EC∗100
(§1) Fluorescence measurements were performed on a BioTek Synergy LX multi-mode reader (Winooski, VT, USA).

COX-1 ovine enzyme = target: T2, COX-1 ovine enzyme (Ovis aries, UniProt P05979); assay: Fluorometric COX-1 inhibitor screening kit; type: biochemical; conditions: for inhibition at 100 µM: at 100 µM concentration; for IC50: fluorometric kit
T2 construct: purchased Abcam ab204698
T2 sequence (P05979 25-600): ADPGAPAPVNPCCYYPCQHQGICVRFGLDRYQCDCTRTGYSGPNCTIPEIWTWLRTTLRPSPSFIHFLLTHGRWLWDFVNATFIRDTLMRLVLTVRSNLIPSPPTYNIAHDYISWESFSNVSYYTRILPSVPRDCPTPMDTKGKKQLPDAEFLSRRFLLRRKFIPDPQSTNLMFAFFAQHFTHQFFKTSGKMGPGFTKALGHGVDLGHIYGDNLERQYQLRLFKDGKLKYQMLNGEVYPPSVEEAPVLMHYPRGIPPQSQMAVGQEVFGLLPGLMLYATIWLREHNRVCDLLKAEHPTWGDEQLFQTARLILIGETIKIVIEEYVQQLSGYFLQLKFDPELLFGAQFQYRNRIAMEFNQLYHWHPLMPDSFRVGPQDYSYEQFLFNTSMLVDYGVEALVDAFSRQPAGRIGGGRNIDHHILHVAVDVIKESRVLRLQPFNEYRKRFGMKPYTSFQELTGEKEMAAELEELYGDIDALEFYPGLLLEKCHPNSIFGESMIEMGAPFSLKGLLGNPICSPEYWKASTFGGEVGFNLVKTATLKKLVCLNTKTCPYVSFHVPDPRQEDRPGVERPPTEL
Description: The COX-1 and COX-2 inhibitory activates of the synthesized compounds were tested using fluorometric COX-1 (Catalog Number: ab204698) and COX-2 (Catalog Number: ab283401) inhibitor screening kits (Abcam, United Kingdom). These assays are based on the fluorometric detection of Prostaglandin G2, generated by the COX enzyme. The experiment was conducted according to the manufacturer’s instructions. Each assay consists of a COX Assay Buffer, COX Probe (in DMSO), COX Cofactor (in DMSO), arachidonic acid and NaOH. The COX-1 inhibitor screening kit contains COX-1 ovine enzyme and COX-1 inhibitor SC560 (dissolved in DMSO), while the COX-2 inhibitor screening kit contains COX-2 human recombinant enzyme and COX-2 inhibitor Celecoxib (dissolved in DMSO). The tested compounds were dissolved in DMSO and further diluted five times with the COX Assay Buffer. The Inhibitor Control (IC) was prepared by adding 2 µL of COX-1/COX-2 inhibitor and 8 µL of COX Assay Buffer into assigned wells, while the Solvent Control (SC) was prepared by adding 2 µL of DMSO and 8 µL of COX Assay Buffer into assigned wells and the Sample (S) and Enzyme Control (EC) were prepared by adding 10 µL of diluted tested compounds or COX Assay Buffer into assigned wells. The Reaction Master Mix (COX Assay Buffer, COX Probe, Diluted COX Cofactor and COX-1/COX-2 Enzyme) was prepared according to instructions and 80 µL of the Reaction Master Mix was added into each well. Meanwhile, a diluted arachidonic acid/NaOH solution was prepared and 10 µL was added into each well using a multi-channel pipette to initiate all the reactions at the same time. The fluorescence values (Ex/Em = 535/587 nm) of the samples were kinetically measured at 25 °C for 5–10 min. The EC, SC, IC and tested compounds at all concentrations were analyzed in triplicates. Two points (T1 and T2) in the linear range of the plot were chosen and corresponding fluorescence values (RFU1 and RFU2) were obtained. The slope for all samples was calculated by dividing ΔRFU (RFU2-RFU1) by time Δt (T2−T1). The percentage of inhibition was calculated as follows: % Relative Inhibition=Slope of EC−Slope of S/Slope of EC∗100
as §1

IC50 [1] [µM]	inhibition at 100 µM (COX-1 ovine enzyme) [%]	IC50 (COX-1 ovine enzyme) [µM]	SMILES
> 100			CCOc1ccccc1NC(=O)N(C)C [Compound 8, 3-(2-ethoxy-phenyl)-1,1-dimethyl-urea]
> 100			CCOc1ccccc1NC(=O)Nc1ccc([N+](=O)[O-])cc1 [Compound 10, 1-(2-ethoxy-phenyl)-3-(4-nitro-phenyl)-urea]
83.4 ± 4.37	< 50	> 100	COc1ccc2cc(C(C)N(O)C(C)=O)ccc2c1 (stereo not drawn) [Compound 12, N-hydroxy-N-[1-(6-methoxy-naphthalen-2-yl)-ethyl]-acetamide]
> 100			CN(C)C(=O)Nc1ccccc1C(=O)O [Compound 9, 2-(3,3-dimethyl-ureido)-benzoic acid]
> 100			CC(C)(C)c1cc(C=C2SC(=S)N(N)C2=O)cc(C(C)(C)C)c1O [Compound 13, 3-amino-5-(3,5-di-tert-butyl-4-hydroxy-benzylidene)-2-thioxo-thiazolidin-4-one]
> 100			C#CCNC(=O)c1cc(C(C)(C)C)c(O)c(C(C)(C)C)c1 [Compound 7, 3,5-di-tert-butyl-4-hydroxy-N-prop-2-ynyl-benzamide]
36.2 ± 3.08	< 50	> 100	CC(=O)N(O)C(C)c1ccc(CC(C)C)cc1 (stereo not drawn) [Compound 11]

Further lines, the compound ahead of its results:

SMILES	IC50 [1] [µM]	inhibition at 100 µM (COX-1 ovine enzyme) [%]	IC50 (COX-1 ovine enzyme) [µM]
COc1ccc2c(c1)c(CNC(=O)NO)c(C)n2C(=O)c1ccc(Cl)cc1 [Compound 1, N’-hydroxy-N-[(1-(4-chlorobenzoyl)-5-methoxy-2-methyl-3-indolyl)methyl]urea]	18.3 ± 2.17	< 50	> 100
CC(NC(=O)NO)c1ccc(-c2ccccc2)c(F)c1 (stereo not drawn) [Compound 2]	6.72 ± 0.79	< 50	> 100
COC(=O)CNC(=O)c1cc(C(C)(C)C)c(O)c(C(C)(C)C)c1 [Compound 5, (3,5-di-tert-butyl-4-hydroxy-benzoylamino)-acetic acid methyl ester]	10.6 ± 0.8	< 50	> 100
C=CCNC(=O)c1cc(C(C)(C)C)c(O)c(C(C)(C)C)c1 [Compound 6, N-allyl-3,5-di-tert-butyl-4-hydroxy-benzamide]	6.89 ± 0.83	< 50	> 100
O=C(NO)NCc1ccccc1Nc1c(Cl)cccc1Cl [Compound 3, N’-hydroxy-N-[(2-(2,6-dichloroanilino)phenyl)methyl]urea]	5.26 ± 0.34	< 50	> 100
COC(=O)C(Cc1c[nH]cn1)NC(=O)c1cc(C(C)(C)C)c(O)c(C(C)(C)C)c1 (stereo not drawn) [Compound 4, 2-(3,5-di-tert-butyl-4-hydroxy-benzoylamino)-3-(1H-imidazol-4-yl)-propionic acid methyl ester]	> 100		
